Key:
[1] = test system: ARF-null MEFs; experiment: BrdU incorporation / cell cycle arrest in ARF-null MEFs; assay type: cell-based, mouse; settings: retroviral infection
Description: BrdU incorporation and immunofluorescence. Wild-type or ARF-null MEFs (4×10^4 cells) were seeded on gelatin-coated coverslips 16 hours before virus infection. Cells were infected three times with empty vector, or vectors expressing murine DMP1, human c-Myc, human E2F-1, or human Ets1. Cells were labeled 36 hours after virus infection with bromodeoxyuridine (BrdU, Sigma) for 14 hours in complete medium. For pulse labeling, MEFs were treated with 2 μM4-HT for 36 hours and labeled with BrdU for three hours at different intervals throughout the inductive phase. Cells were fixed in ice-cold methanol-acetone (1:1) for 10 min at −20° C. and then were stained with affinity-purified antibodies to DMP1 (AF) [Hirai and Sherr, Mol. Cell. […]
Based on the above observations, it was determined as to whether introduction of DMP1 would induce synthesis of the endogenous ARF protein in normal diploid fibroblast strains. […] Although the blot was normalized for protein input, the levels of p19^ARF induced by DMP1 were calculated to be 2-fold higher than those induced by Myc, because fewer cells were productively infected with the DMP1 virus in this experiment (see FIG. 15A).

[2] = target: T1, GST-Ets2 fusion protein (Homo sapiens, UniProt P15036); experiment: EMSA competition with bacterial GST-Ets2 fusion protein; assay type: binding; settings: excess unlabeled oligonucleotide
T1 construct: made in house; host or cells: bacteria
T1 sequence (P15036 363-443 limits assumed): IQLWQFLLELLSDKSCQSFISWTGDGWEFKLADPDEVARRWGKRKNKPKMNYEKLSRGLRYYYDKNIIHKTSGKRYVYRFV
Description: Double-stranded oligonucleotides containing potential DMP1 binding sites (BS1 and BS2) and mutated versions (M1-M4) (FIG. 5B) are end-labeled with ^32P using the Klenow fragment of DNA polymerase and α-^32P-dATP (6000 Ci/mmol; Dupont NEN) (8). Nuclear extracts from mouse NIH-3T3 or CTLL cells are prepared with buffer containing 0.4 M NaCl (2). Mammalian cell extracts (15 μg protein) or Sf9 lysates (corresponding to 5×10^2 infected cells) containing ˜4 ng recombinant DMP1 are mixed with 3 ng of ^32P-labeled probe (1×10^5 cpm) in 15 ul Binding buffer containing 2.5 μg of poly(dI-dC) and 2.5 μg BSA and incubated at 4° C. for 30 minutes. For competition experiments, the indicated amounts of unlabeled oligonucleotides are added to the reactions before addition of the labeled probe. In some experiments, a bacterially produced GST-Ets2 fusion protein containing the complete Ets2 DNA-binding domain (10) is used in place of Sf9 extracts containing recombinant DMP1. Protein-DNA complexes are separated on nondenaturing 4% polyacrylamide gels as described (8). Where indicated, antiserum to DMP1 together with 2.5 μg salmon testis DNA (Sigma; used to reduce nonspecific DNA binding activity caused by serum addition) is preincubated with extracts for 30 minutes at 4° C. prior to initiation of binding reactions. Immune complexes are either removed by adsorption to protein A-Sepharose beads (immunodepletion experiments) or are allowed to remain (“supershift” experiments).
Using electrophoretic mobility shift assays (EMSA) performed after mixing a titrated excess (3 ng) of ^32P-end labeled BS1 probe with Sf9 lysates producing DMP1 (˜4 ng recombinant protein per reaction), a BS1-containing protein complex is detected that was competed with an excess of unlabeled BS1 oligonucleotide but not with mutant oligonucleotides M1 and M2 (FIG. 6A). […] More subtle mutations within this region may be tolerated, because high concentrations of M4 competed for BS1 binding to both Ets2 and DMP1 in subsequent studies (FIG. 5B and see below). DMP1 also binds a BS2 probe, and the binding is competed by excess BS2 or BS1 (FIG. 6B). In agreement with the site selection frequencies (FIG. 5A), binding of ^32P-BS1 under equivalent conditions was competed more efficiently by excess unlabeled BS1 than by BS2 (FIG. 6B). […] In agreement, Ets2 binding to BS1 could be competed with excess unlabeled BS1 and M3, but not by BS2 (FIG. 6C). Therefore, although both DMP1 and Ets2 can each bind to BS1 sequences, their exclusive interactions with BS2 and M3, respectively, help to distinguish DMP1 and Ets binding activities (summarized in FIG. 5B).

Row | Substance | cell cycle arrest [1] | competition for BS1 binding to Ets2 [2]
1 | DMP1: murine cyclin D-associated myb-like transcription factor, 761 amino acids, SEQ ID NO:1 | refractory | 
2 | M3: DMP1 deletion mutant (NcoI), amino acids 1-458 of SEQ ID NO:1 |  | competed
